Experimental data reported in patent publication US8952024B2, “Herbicidal pyrimidone derivatives” (E I du Pont de Nemours and Company, priority 2009, dated 2015).

Tests used:
Type in all cases: in vivo
[1] = test system: giant foxtail (Setaria faberii); experiment: Test B pre-/postemergence plant response
Summary of the method: (§1)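 Visually scored on a 0 to 100 scale after 13 to 15 days in greenhouse versus controls. Treatments were preemergence on seeded loam/sand soil and postemergence on 1- to 4-leaf plants.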

[2] = test system: pigweed (Amaranthus retroflexus); experiment: Test B pre-/postemergence plant response
Summary of the method: as §1

[3] = test system: velvetleaf (Abutilon theophrasti); experiment: Test B pre-/postemergence plant response
Summary of the method: as §1

[4] = test system: green foxtail (Setaria viridis); experiment: Test B pre-/postemergence plant response
Summary of the method: as §1

[5] = test system: yellow nutsedge (Cyperus esculentus); experiment: Test B pre-/postemergence plant response
Summary of the method: as §1

[6] = test system: corn (Zea mays); experiment: Test B pre-/postemergence plant response
Summary of the method: as §1

[7] = test system: soybean (Glycine max); experiment: Test B pre-/postemergence plant response
Summary of the method: as §1

[8] = test system: lambsquarters (Chenopodium album); experiment: Test B pre-/postemergence plant response
Summary of the method: as §1

[9] = test system: johnsongrass (Sorghum halepense); experiment: Test B pre-/postemergence plant response
Summary of the method: as §1

[10] = test system: goosegrass (Eleusine indica); experiment: Test B pre-/postemergence plant response
Summary of the method: as §1

[11] = test system: canarygrass (Phalaris minor); experiment: Test B postemergence plant response; conditions: Postemergence
Summary of the method: (§2)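 Visual ratings from 0 (no effect) to 100 (complete control), made against controls 13–15 days after treatment, kept in a greenhouse. Compounds were applied postemergence to potted plants at the 1- to 4-leaf stage (2–18 cm).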

[12] = test system: winter barley (Hordeum vulgare); experiment: Test B postemergence plant response; conditions: Postemergence
Summary of the method: as §2

[13] = test system: windgrass (Apera spica-venti); experiment: Test B postemergence plant response; conditions: Postemergence
Summary of the method: as §2

[14] = test system: chickweed (Stellaria media); experiment: Test B postemergence plant response; conditions: Postemergence
Summary of the method: as §2

[15] = 250 g ai/ha, Preemergence, 0 to 100 scale
[16] = Postemergence, 31 g ai/ha, scale 0 to 100 (0 no effect, 100 complete control)
[17] = Postemergence, 62 g ai/ha, scale 0 (no effect) to 100 (complete control), 13 to 15 days
[18] = Postemergence, 125 g ai/ha, visual rating after 13 to 15 days, scale 0 (no effect) to 100 (complete control)
[19] = Postemergence, 250 g ai/ha, scale 0 to 100
[20] = Preemergence, 31 g ai/ha, scale 0 to 100 (0 no effect, 100 complete control)
[21] = Preemergence, 62 g ai/ha, scale 0 to 100 (0 no effect, 100 complete control)
[22] = Preemergence, 125 g ai/ha, 0 to 100 scale
[23] = 31 g ai/ha, scale 0 to 100 (0 no effect, 100 complete control)
[24] = 62 g ai/ha, scale 0 (no effect) to 100 (complete control), 13 to 15 days
[25] = 125 g ai/ha, visual rating after 13 to 15 days, scale 0 (no effect) to 100 (complete control)

3-cyclohexyl-5-[(2-hydroxy-6-oxo-1-cyclohexen-1-yl)carbonyl]-2-phenyl-4(3H)-pyrimidinone [Compound 128]
70: Plant response rating, Corn [6, 16] | Plant response rating, Lambsquarters [8, 17] | Plant response rating, Johnsongrass [9, 17] | Plant response rating, Goosegrass [10, 20]
10: Plant response rating, Barley [12, 24] | Plant response rating, Barley ([12]; 125 g ai/ha, scale 0 to 100 (0 no effect, 100 complete control), 13 to 15 days) | Barley plant response rating ([12]; 250 g ai/ha, scale 0 to 100)
65: Plant response rating, Pigweed [2, 16] | Plant response rating, Foxtail, Green [4, 15] | Foxtail, Green plant response rating [4, 22] | Soybean plant response rating [7, 22] | Plant response rating, Johnsongrass [9, 16] | Plant response rating, Goosegrass [10, 16]
45: Plant response rating, Soybean [7, 21]
50: Plant response rating, Nutsedge, Yellow [5, 18] | Plant response rating, Lambsquarters [8, 16] | Plant response rating, Canarygrass [11, 23] | Plant response rating, Canarygrass [11, 24]
100: Plant response rating, Foxtail, Giant [1, 15] | Foxtail, Giant plant response rating [1, 19] | Plant response rating, Pigweed [2, 15] | Plant response rating, Pigweed [2, 20] | Plant response rating, Pigweed [2, 21] | Pigweed plant response rating [2, 22] | Plant response rating, Velvetleaf [3, 15] | Plant response rating, Velvetleaf [3, 18] | Velvetleaf plant response rating [3, 19] | Plant response rating, Velvetleaf [3, 20] | Plant response rating, Velvetleaf [3, 21] | Velvetleaf plant response rating [3, 22] | Plant response rating, Soybean [7, 16] | Plant response rating, Soybean [7, 17] | Plant response rating, Soybean [7, 18] | Soybean plant response rating [7, 19] | Plant response rating, Lambsquarters [8, 15] | Plant response rating, Lambsquarters [8, 20] | Plant response rating, Lambsquarters [8, 21] | Lambsquarters plant response rating [8, 22] | Plant response rating, Goosegrass [10, 15] | Goosegrass plant response rating [10, 22] | Plant response rating, Chickweed [14, 25] | Chickweed plant response rating ([14]; 250 g ai/ha, scale 0 to 100)
98: Plant response rating, Foxtail, Giant [1, 18] | Pigweed plant response rating [2, 19] | Foxtail, Green plant response rating [4, 19] | Lambsquarters plant response rating [8, 19] | Plant response rating, Johnsongrass [9, 15] | Johnsongrass plant response rating [9, 19] | Goosegrass plant response rating [10, 19] | Windgrass plant response rating ([13]; 250 g ai/ha, scale 0 to 100) | Plant response rating, Chickweed [14, 24]
55: Plant response rating, Nutsedge, Yellow [5, 21] | Plant response rating, Johnsongrass [9, 21]
95: Plant response rating, Velvetleaf [3, 17] | Plant response rating, Soybean [7, 15] | Plant response rating, Lambsquarters [8, 18] | Plant response rating, Goosegrass [10, 18]
75: Plant response rating, Foxtail, Giant [1, 16] | Foxtail, Giant plant response rating [1, 22] | Plant response rating, Corn [6, 17]
35: Plant response rating, Foxtail, Giant [1, 21] | Plant response rating, Nutsedge, Yellow [5, 17] | Plant response rating, Corn [6, 15]
60: Plant response rating, Foxtail, Green [4, 16] | Plant response rating, Foxtail, Green [4, 17] | Nutsedge, Yellow plant response rating [5, 19]
90: Plant response rating, Nutsedge, Yellow [5, 15] | Plant response rating, Johnsongrass [9, 18] | Plant response rating, Canarygrass [11, 25] | Canarygrass plant response rating ([11]; 250 g ai/ha, scale 0 to 100)
0: Plant response rating, Foxtail, Giant [1, 20] | Plant response rating, Foxtail, Green [4, 20] | Plant response rating, Nutsedge, Yellow [5, 20] | Plant response rating, Corn [6, 20] | Plant response rating, Corn [6, 21] | Corn plant response rating [6, 22] | Plant response rating, Johnsongrass [9, 20] | Plant response rating, Barley [12, 23]
80: Plant response rating, Pigweed [2, 17] | Plant response rating, Velvetleaf [3, 16] | Plant response rating, Corn [6, 18] | Plant response rating, Chickweed [14, 23]
85: Plant response rating, Foxtail, Giant [1, 17] | Plant response rating, Pigweed [2, 18] | Plant response rating, Foxtail, Green [4, 18] | Nutsedge, Yellow plant response rating [5, 22] | Corn plant response rating [6, 19] | Johnsongrass plant response rating [9, 22] | Plant response rating, Goosegrass [10, 17] | Plant response rating, Windgrass [13, 24] | Plant response rating, Windgrass [13, 25]
40: Plant response rating, Windgrass [13, 23]
25: Plant response rating, Foxtail, Green [4, 21] | Plant response rating, Nutsedge, Yellow [5, 16] | Plant response rating, Soybean [7, 20]
